The source made the active and inactive calls.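 How the source made its calls: active means EC50 under a set limit in control cells lacking the mosquito receptor, marking a fluorescence artifact; inactive means the rest.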
The molecules below were run against HEK293 Galpha15/GCaMP6s without NPYLR7, calcium fluorescence (assay: nonspecific activation in parental Galpha15/GCaMP6s cells – cell-based, HEK293 lacking NPYLR7, counter-screen for mosquito NPYLR7 agonist project, dose response (AID 1259426);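 further: potency for a rise in fluorescence over baseline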).
For `CC(=O)Oc1ccc(Cn2c(C)c(C(=O)NCc3ccc(C#N)cc3)sc2=O)cc1`, the EC50 was > 20 µM (inactive). With `CN1C(=S)N(c2ccc3c(c2)CCC3)C(=O)/C1=C\c1ccncc1` the EC50 was > 20 µM (inactive). With `O=C1C(=Cc2ccccc2O)NC(=S)N1Cc1ccco1` the EC50 was 0.955 µM. Work on `Cc1ccc2c(c1)CCCN2CC(=O)N(CCC(N)=O)c1ccccc1` yielded an EC50 of 16.8 µM. Molecule `COc1ccccc1N=c1oc2cc(O)ccc2cc1-c1nc2ccccc2[nH]1` has an EC50 of 0.805 µM. Molecule `N#CC1C(=N)SC(=N)C(C#N)C1c1ccccc1F` (stereo not drawn) has an EC50 of 10.2 µM. `COc1cc(/C=C(\C#N)C(=O)c2ccc(O)c(O)c2)cc(I)c1O` gave an EC50 of 6.08 µM. In the case of `Cc1cc2c(c(-c3ccc4c(cnn4C)c3)c1)OC(CN)C2` (stereo not drawn), the EC50 is reported as > 20 µM (inactive). `COc1cc(C=C(C#N)S(=O)(=O)c2ccc(F)cc2)cc(Br)c1O` was tested, and the EC50 was > 20 µM (inactive). In the case of `CN1C(=S)N(CCCN2CCOCC2)C(=O)/C1=C/c1ccc(N(C)C)cc1`, the EC50 is reported as > 20 µM (inactive). `Cc1ccc(/C=C2/Oc3cc(O)ccc3C2=O)s1` showed an EC50 of 17.2 µM. In the case of `O[C@@H]1CN(Cc2ccncc2Cl)CC[C@H]1c1ccc2c(c1)OCO2`, the EC50 is reported as > 20 µM (inactive). In the case of `N#C/C(=C/c1ccc(N2CCCCCC2)o1)c1ccc(F)cc1`, the EC50 is reported as 19.3 µM.

Source: PubChem BioAssay AID1259426 (Fisher Drug Discovery Resource Center, 2018)
